Results reported in PubChem BioAssay (NCI).
“And” between values parts separate entries of the source, which are not always exact repeats. Equal values may be shown once.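 Compound exposure: 48 hours, 5 concentrations, 96-well plates. GI50 is the concentration that inhibits growth by half. TGI: total growth inhibition.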

Assays:
Experiment in all cases: NCI-60 cell line screen, 48 h; in the data active means GI50 below about 0.43 µM; inactive means the rest
OVCAR-8 ovarian = test system: OVCAR-8 ovarian
SF-295 CNS = test system: SF-295 CNS
SNB-19 CNS = test system: SNB-19 CNS
A549 NSCLC = test system: A549 NSCLC
HCC-2998 colon = test system: HCC-2998 colon
U251 CNS = test system: U251 CNS
SF-268 CNS = test system: SF-268 CNS
BT-549 breast = test system: BT-549 breast
MCF7 breast = test system: MCF7 breast
MDA-MB-231 breast = test system: MDA-MB-231 breast

O=c1cccccc1[O-].O=c1cccccc1[O-].O=c1cccccc1[O-].[Sm+3]
inactive: GI50 (U251 CNS) 13.8 µM
> 100 µM: TGI (OVCAR-8 ovarian) | TGI (SF-295 CNS) | TGI (SNB-19 CNS) | TGI (A549 NSCLC) | TGI (HCC-2998 colon) | TGI (U251 CNS)

O=C(CC1=Nc2nnc(-c3nnc4n3C(=O)C(CC(=O)C3CC3)=N4)n2C1=O)C1CC1
> 100 µM: TGI (SF-268 CNS) | TGI (SF-295 CNS) | TGI (SNB-19 CNS) | TGI (A549 NSCLC) | TGI (HCC-2998 colon) | TGI (U251 CNS)

Cc1ccc(S(=O)(=O)N2CCC(C(=O)O)(c3ccccc3)CC2)cc1
> 100 µM: TGI (OVCAR-8 ovarian) | TGI (SF-268 CNS) | TGI (BT-549 breast) | TGI (SF-295 CNS) | TGI (SNB-19 CNS) | TGI (MCF7 breast) | TGI (MDA-MB-231 breast) | TGI (A549 NSCLC) | TGI (U251 CNS)

CC1CC(C)C(C(O)CC2CC(=O)N(c3ccccc3)C(=O)C2)C(O)C1 (centres undefined)
> 100 µM: TGI (OVCAR-8 ovarian) | TGI (SF-268 CNS) | TGI (SF-295 CNS) | TGI (SNB-19 CNS) | TGI (A549 NSCLC) | TGI (HCC-2998 colon) | TGI (U251 CNS)

N#CCC1(n2cc(-c3ncnc4[nH]ccc34)cn2)CN(C2CCN(C(=O)c3ccnc(C(F)(F)F)c3F)CC2)C1
inactive: GI50 (OVCAR-8 ovarian) > 100 µM | GI50 (SF-268 CNS) > 100 µM | GI50 (BT-549 breast) 37.5 µM | GI50 (SF-295 CNS) 53.9 µM | GI50 (SNB-19 CNS) > 100 µM | GI50 (MDA-MB-231 breast) 46.6 µM | GI50 (A549 NSCLC) > 100 µM | GI50 (HCC-2998 colon) > 100 µM | GI50 (U251 CNS) > 100 µM
> 100 µM: TGI (OVCAR-8 ovarian) | TGI (SF-268 CNS) | TGI (BT-549 breast) | TGI (SF-295 CNS) | TGI (SNB-19 CNS) | TGI (MDA-MB-231 breast) | TGI (A549 NSCLC) | TGI (HCC-2998 colon) | TGI (U251 CNS)

CC(=O)OCC1OC(n2c(=S)n(-c3ccccc3)c(=O)c3cc(Br)cc(Br)c32)C(OC(C)=O)C(OC(C)=O)C1OC(C)=O (centres undefined)
71.4 µM and > 100 µM: TGI (SF-295 CNS)
inactive: GI50 (SF-268 CNS) 35.2 µM and 94.8 µM | GI50 (SF-295 CNS) 11.7 µM and 60.3 µM | GI50 (SNB-19 CNS) 28.5 µM and 71.1 µM | GI50 (U251 CNS) 20 µM and 91.9 µM
> 100 µM: TGI (OVCAR-8 ovarian) | TGI (SF-268 CNS) | TGI (A549 NSCLC) | TGI (HCC-2998 colon) | TGI (U251 CNS)
85.5 µM and > 100 µM: TGI (SNB-19 CNS)

CCOc1ccccc1NC(=O)C1=C(C)NC(C)=C(C(=O)Nc2ccccc2OCC)C1c1ccc([N+](=O)[O-])cc1
> 100 µM: TGI (SF-268 CNS) | TGI (SF-295 CNS) | TGI (SNB-19 CNS) | TGI (A549 NSCLC) | TGI (HCC-2998 colon) | TGI (U251 CNS)

Cc1ccc(C2=C(Cl)C(=O)C(c3ccc(C)cc3)=C(Cl)C2=O)cc1
> 100 µM: TGI (OVCAR-8 ovarian) | TGI (SF-268 CNS) | TGI (BT-549 breast) | TGI (SF-295 CNS) | TGI (SNB-19 CNS) | TGI (MCF7 breast) | TGI (A549 NSCLC) | TGI (U251 CNS)

O=C(/C=C(\[O-])c1ccccc1)CCCCCCC(=O)/C=C(\[O-])c1ccccc1.O=C(/C=C(\[O-])c1ccccc1)CCCCCCC(=O)/C=C(\[O-])c1ccccc1.O=C(/C=C(\[O-])c1ccccc1)CCCCCCC(=O)/C=C(\[O-])c1ccccc1.[Nd+3].[Nd+3]
inactive: GI50 (OVCAR-8 ovarian) > 50 µM | GI50 (SF-268 CNS) > 50 µM | GI50 (SF-295 CNS) 40.2 µM | GI50 (SNB-19 CNS) > 50 µM | GI50 (A549 NSCLC) > 50 µM | GI50 (HCC-2998 colon) > 50 µM | GI50 (U251 CNS) > 50 µM
> 50 µM: TGI (OVCAR-8 ovarian) | TGI (SF-268 CNS) | TGI (SF-295 CNS) | TGI (SNB-19 CNS) | TGI (A549 NSCLC) | TGI (HCC-2998 colon) | TGI (U251 CNS)

OCC#Cc1ccccc1C#Cc1ccc(C#Cc2ccccc2)cc1
57 µM: TGI (OVCAR-8 ovarian)
37.5 µM: TGI (MDA-MB-231 breast)
38.3 µM: TGI (MCF7 breast)
> 100 µM: TGI (SF-268 CNS) | TGI (BT-549 breast) | TGI (SF-295 CNS) | TGI (SNB-19 CNS)
38.6 µM: TGI (U251 CNS)
33.3 µM: TGI (A549 NSCLC)
inactive: GI50 (OVCAR-8 ovarian) 23.1 µM | GI50 (SF-268 CNS) 23.7 µM | GI50 (BT-549 breast) 35.6 µM | GI50 (SF-295 CNS) 37.7 µM | GI50 (SNB-19 CNS) 35.9 µM | GI50 (MCF7 breast) 15.9 µM | GI50 (MDA-MB-231 breast) 20 µM | GI50 (A549 NSCLC) 15.3 µM | GI50 (U251 CNS) 19.9 µM

CCCCC[C@@H](C/C=C/CCC(=O)NC/C(=C/Cl)[C@H]1C(=O)C(C)(C)C(=O)[C@@H](C)[C@@]1(C)O)OC
42 µM: TGI (SNB-19 CNS)
36.1 µM: TGI (OVCAR-8 ovarian)
33.3 µM: TGI (A549 NSCLC)
38.8 µM: TGI (MCF7 breast)
34.6 µM: TGI (SF-268 CNS)
26.4 µM: TGI (SF-295 CNS)
32.7 µM: TGI (BT-549 breast)
37.1 µM: TGI (U251 CNS)
32.3 µM: TGI (MDA-MB-231 breast)
inactive: GI50 (OVCAR-8 ovarian) 18.6 µM | GI50 (SF-268 CNS) 17.6 µM | GI50 (BT-549 breast) 17.9 µM | GI50 (SF-295 CNS) 13.5 µM | GI50 (SNB-19 CNS) 20.3 µM | GI50 (MCF7 breast) 19.2 µM | GI50 (MDA-MB-231 breast) 16 µM | GI50 (A549 NSCLC) 16.2 µM | GI50 (U251 CNS) 20.1 µM

C=C(Cl)[C@@](Cl)(CBr)CC[C@@H](Br)C(C)(C)Cl
2.01 µM and 0.937 µM: TGI (MCF7 breast)
3.01 µM and 0.838 µM: TGI (SF-268 CNS)
active: GI50 (SNB-19 CNS) 0.358 µM
3.12 µM and 1.65 µM: TGI (HCC-2998 colon)
2.46 µM and 0.452 µM: TGI (SF-295 CNS)
1.54 µM and 1.52 µM: TGI (SNB-19 CNS)
22.3 µM: TGI (BT-549 breast)
inactive: GI50 (MCF7 breast) 0.432 µM | GI50 (MDA-MB-231 breast) 0.577 µM | GI50 (A549 NSCLC) 1.67 µM | GI50 (HCC-2998 colon) 1.27 µM | GI50 (U251 CNS) 0.971 µM
4.12 µM and 4.11 µM: TGI (A549 NSCLC)

Clc1ccc2c(NCCCN3CCN(c4nc(N5CCOCC5)nc5ccccc45)CC3)ccnc2c1
3.08 µM: TGI (BT-549 breast)
3.28 µM: TGI (HCC-2998 colon)
inactive: GI50 (OVCAR-8 ovarian) 1.98 µM | GI50 (SF-268 CNS) 2.21 µM | GI50 (BT-549 breast) 1.64 µM | GI50 (HCC-2998 colon) 1.77 µM | GI50 (U251 CNS) 2.15 µM
5.51 µM: TGI (SF-268 CNS)
4.47 µM: TGI (OVCAR-8 ovarian)
5.15 µM: TGI (U251 CNS)

Cn1ccnc1C(=O)/C=C/c1ccc(C(=O)Nc2c(F)c(F)c(F)c(F)c2F)cc1
4.16 µM: TGI (A549 NSCLC)
4.42 µM: TGI (SF-268 CNS)
3.14 µM: TGI (HCC-2998 colon)
6.7 µM: TGI (MDA-MB-231 breast)
4.04 µM: TGI (OVCAR-8 ovarian)
2.75 µM: TGI (BT-549 breast)
3.64 µM: TGI (SF-295 CNS)
inactive: GI50 (OVCAR-8 ovarian) 1.72 µM | GI50 (SF-268 CNS) 1.81 µM | GI50 (BT-549 breast) 1.43 µM | GI50 (SF-295 CNS) 1.85 µM | GI50 (SNB-19 CNS) 1.56 µM | GI50 (MDA-MB-231 breast) 2.27 µM | GI50 (A549 NSCLC) 1.79 µM | GI50 (HCC-2998 colon) 1.64 µM | GI50 (U251 CNS) 1.09 µM
2.34 µM: TGI (U251 CNS)
3.24 µM: TGI (SNB-19 CNS)

Nc1nc(=S)[nH]c(C(=O)Nc2nccs2)c1-c1ccccc1
> 100 µM: TGI (OVCAR-8 ovarian) | TGI (SF-268 CNS) | TGI (SF-295 CNS) | TGI (SNB-19 CNS) | TGI (A549 NSCLC) | TGI (HCC-2998 colon) | TGI (U251 CNS)

CN(C)c1ccc(C2CC(C)(O)Oc3cc4c(cc32)OCO4)cc1 (centres undefined)
> 100 µM: TGI (SF-268 CNS) | TGI (SF-295 CNS) | TGI (SNB-19 CNS) | TGI (MCF7 breast) | TGI (MDA-MB-231 breast) | TGI (A549 NSCLC) | TGI (U251 CNS)
94.7 µM: TGI (OVCAR-8 ovarian)
95.1 µM: TGI (HCC-2998 colon)

COCC1N=C(c2cc(OC)c(OC)c(OC)c2-c2cc3c(cc2[C@H](C)O)OCO3)O[C@H]1c1ccccc1 (some centres undefined)
> 100 µM: TGI (OVCAR-8 ovarian) | TGI (SF-295 CNS) | TGI (SNB-19 CNS) | TGI (A549 NSCLC) | TGI (HCC-2998 colon) | TGI (U251 CNS)

Nc1ncnc2c1nc(Cl)n2C1OC(CO)C(O)C1O (centres undefined)
> 100 µM: TGI (OVCAR-8 ovarian) | TGI (SF-268 CNS) | TGI (BT-549 breast) | TGI (SF-295 CNS) | TGI (SNB-19 CNS) | TGI (MCF7 breast) | TGI (MDA-MB-231 breast) | TGI (A549 NSCLC) | TGI (U251 CNS)

COc1ccc(C(=O)O/N=C2/CCCCC2CN(C)C)cc1 (centres undefined)
> 100 µM: TGI (OVCAR-8 ovarian) | TGI (SF-295 CNS) | TGI (A549 NSCLC) | TGI (HCC-2998 colon) | TGI (U251 CNS)
